Entries after “also recorded” stand apart in the source; their conditions may differ. Where two headings read alike, the source gives them in different places.
Columns and labels:
[1] = target: T1, 5-HT1D sites (Macaca mulatta, UniProt F6SFA9); assay: Displacement of S-CM-G[125I]TNH2 binding with serotonin in monkey brain sections; design: species or system monkey (Macacca mulatta n.); conditions: displacement of 0.02 nM S-CM-G[125I]TNH2, read-out: IC50 (concentration which inhibits 50% of the binding)
T1 construct: The right hemisphere is cut out and frozen by isopentane cooled in liquid nitrogen; from tissue; host or cells: rhesus monkey brain sections (right hemisphere, 10 μm, frozen), substantia nigra
T1 sequence (F6SFA9 1-390): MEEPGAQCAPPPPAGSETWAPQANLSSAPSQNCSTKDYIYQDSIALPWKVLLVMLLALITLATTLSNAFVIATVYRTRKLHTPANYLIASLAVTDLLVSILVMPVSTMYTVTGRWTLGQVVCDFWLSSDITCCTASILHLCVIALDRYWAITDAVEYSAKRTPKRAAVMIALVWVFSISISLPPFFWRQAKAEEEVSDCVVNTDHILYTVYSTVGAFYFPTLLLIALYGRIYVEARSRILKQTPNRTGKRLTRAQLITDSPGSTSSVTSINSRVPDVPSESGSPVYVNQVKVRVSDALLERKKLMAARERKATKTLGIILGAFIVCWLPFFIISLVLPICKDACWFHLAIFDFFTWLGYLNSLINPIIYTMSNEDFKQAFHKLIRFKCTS
Procedure: (§1) A male monkey (Macacca mulatta n.) weighing 8 kg was sacrificed by means of an overdose of barbiturates and exsanguination. […] The right hemisphere is cut out and frozen by isopentane cooled in liquid nitrogen. The block is stored at -20° C. 10 μm thick sections are prepared in a cryostat at -20° C. and placed on gelatin-coated slides (Segu et al., 1990, J. Neurosci. Meth., 31, 197). They are stored at -20° C. until required.
(§2) The sections are preincubated for 1 h at 4° C. in a Krebs solution (mM: NaCl, 118; KCl, 4.5; CaCl2, 1.2; MgCl2, […]; Tris, 15; pH 7.4) in order to remove the endogenous ligands. They are then incubated at 20° C. for 60 minutes in a solution containing 10^-5 M pargyline, 57 mM ascorbic acid, 10 g/l of bovine serum albumin and 0.02 nM S--CM-G[^125 I]TNH2, alone or in the presence of increasing concentrations of serotonin. Some of the sections are incubated under identical conditions except that the radioactive probe is replaced either with 2 nM [^3 H]5-HT, or with 2 nM [^3 H]5-HT in the presence of 100 nM 8-hydroxy-2-[di-N-propylamino]tetralin (8-OH-DPAT) and 100 nM mesulergin, or with 1 nM [^3 H]8-OH-DPAT. After rinsing 2 x for 1 minute in distilled water, the sections are dried.
(§3) The slides are affixed to a tritium-sensitive film for 8 days. […] The autoradiographs are quantified with a video system for image analysis (Segu et al., 1990).

[2] = tested on: receptor binding sites with a high affinity for serotonin (5-HT1); assay: Displacement, by the derivatives S-CM-R, of the high affinity binding of [3H]5-HT in rat brain sections; conditions: 2 nM [3H]5-HT
Description: The distribution of the receptor binding sites with a high affinity for serotonin (5-HT1) is heterogeneous in the central nervous system of the rat (Pazos and Palacios, Brain Research, 346, 1985, p. 205-230; Segu et al., Brain Research, 384, 1986, p. 205-217). Furthermore, the content of subtypes of 5-HT1 sites varies according to the anatomical structure in question.
The protocol for preparing the brain sections is common to all the studies which follow. The animals are decapitated after anaesthesia with chloral hydrate (400 mg/kg of gross weight). The brains are quickly removed from the skull and frozen by immersion in isopentane cooled by liquid nitrogen. 20 μm sections, prepared in a cryostat at -20° C., are mounted on gelatin-coated slides and stored at -20° C.
The sections are preincubated for 1 hour at 4° C. in a Krebs solution (NaCl 118 mM; KCl 4.8 mm; CaCl2 1.2 mM; MgCl2 1.2 mM; Tris-HCl 15 mM, pH 7.4) in order to remove the endogenous ligands.
1. Displacement, by the derivatives S-CM-R, of the high affinity binding of serotonin in rat brain sections
The incubations take place for 60 minutes at 20° C. in a Krebs solution containing 10 μM pargyline, 5.7.10^-4 M ascorbic acid, 2 nM [^3 H]5-HT (NEN, As=30 Ci/mmol) and increasing concentrations of derivatives S-CM-R. The non-specific binding is determined on homothetic sections under the same conditions, but in the presence of 10^-5 M 5-HT.
After incubation, the sections are rinsed three times for 20 seconds in distilled water and dried by a stream of hot air. The sections are affixed to a film (Amersham) for 6 weeks in the presence of a standard ([^3 H] microscale, Amersham). The films are developed for 6 minutes with Kodak D19, rinsed and fixed with AL4 (Kodak). Quantitative analysis of the autoradiographs is performed with an image analysis system (Segu et al., J. Neurosci. Methods, 31, 1990, p. 197-208).

[3] = Passage across the blood-brain barrier after intracardiac injection (brain autoradiography); assay type: in vivo, mice and guinea-pigs; conditions: intracardiac injection; 10 minutes; conclusion
Procedure: 2 mice and 2 guinea-pigs are deeply anaesthetized with chloral hydrate (intraperitoneal injection of 0.12 ml of a 35% solution per 100 g of body weight).
The mice and guinea-pigs receive intracardiac injections of 200 μl and 1.5 ml, respectively, of S--CM-G[^125 I]TNH2.
After 10 minutes, the animals, still under deep anaesthesia, are decapitated and the brains are frozen and stored as indicated in Example 1.
Sections are prepared and autoradiography is carried out as described in Example 1.

[4] = tested on: 5-HT1D sites; assay: Labelling of substantia nigra in monkey brain sections (autoradiography); assay type: binding, monkey (Macacca mulatta n.); conditions: 1 nM [3H]8-OH-DPAT
Procedure: (§4) A male monkey (Macacca mulatta n.) weighing 8 kg was sacrificed by means of an overdose of barbiturates and exsanguination. […] The right hemisphere is cut out and frozen by isopentane cooled in liquid nitrogen. The block is stored at -20° C. […] They are stored at -20° C. until required.
(§5) Some of the sections are incubated under identical conditions except that the radioactive probe is replaced either with 2 nM [^3 H]5-HT, or with 2 nM [^3 H]5-HT in the presence of 100 nM 8-hydroxy-2-[di-N-propylamino]tetralin (8-OH-DPAT) and 100 nM mesulergin, or with 1 nM [^3 H]8-OH-DPAT. After rinsing 2 x for 1 minute in distilled water, the sections are dried.
(§6) The slides are affixed to a tritium-sensitive film for 8 days. The film is developed for 6 minutes in D19, rinsed and fixed.

[5] = target: T2, 5-HT1A sites (Macaca mulatta, UniProt F7GIU0); assay: Labelling of hippocampus in monkey brain sections (autoradiography); assay type: binding, monkey (Macacca mulatta n.)
T2 sequence (F7GIU0 1-421): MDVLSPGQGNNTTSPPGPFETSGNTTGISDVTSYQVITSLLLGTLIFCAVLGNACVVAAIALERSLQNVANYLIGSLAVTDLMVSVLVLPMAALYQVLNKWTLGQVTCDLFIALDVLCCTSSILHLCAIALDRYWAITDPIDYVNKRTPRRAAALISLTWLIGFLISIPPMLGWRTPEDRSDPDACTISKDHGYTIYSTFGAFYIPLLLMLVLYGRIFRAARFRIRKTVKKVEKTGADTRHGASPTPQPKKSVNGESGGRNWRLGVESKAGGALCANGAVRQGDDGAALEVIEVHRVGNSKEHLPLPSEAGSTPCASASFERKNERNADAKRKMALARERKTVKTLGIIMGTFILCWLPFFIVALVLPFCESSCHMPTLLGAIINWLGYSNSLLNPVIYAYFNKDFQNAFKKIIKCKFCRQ
Procedure: as §1, §2, §3

[6] = target: T1, 5-HT1D sites; assay: Labelling of substantia nigra in monkey brain sections (autoradiography); assay type: binding, monkey (Macacca mulatta n.)
Procedure: as §4, §5, §6

[7] = 60 min at 20° C, single IC50, read-out: IC50 (displacement of specific binding of [3H]5-HT)
[8] = two-phase process, first site, read-out: IC50 for the first site (displacement of [3H]5-HT)
[9] = two-phase process, second site, read-out: IC50 for the second site (displacement of [3H]5-HT)

Molecule | phases of displacement of [3H]5-HT specific binding [2] | IC50 [2, 7] | IC50 [2, 8] | IC50 [2, 9] | further results
NCCc1c[nH]c2ccc(O)cc12 [5-HT, reference compound] | one-phase process | 2 nM | – | – | IC50 [1]: ~5 nM
NCCc1c[nH]c2ccc(OCC(=O)O)cc12 [S--CM] | – | 1000 nM | – | – | –
NCCc1c[nH]c2ccc(OCC(=O)NCC(=O)N[C@@H](Cc3ccc(O)cc3)C(N)=O)cc12 [S-CM-GTNH2, tryptamine-5-O-carboxymethylglycyltyrosinamide] | two-phase process | – | 20 nM | 400 nM | passage across the blood-brain barrier [3]: unable to pass through the blood-brain barrier
NCCc1c[nH]c2ccc(OCC(=O)N[C@@H](Cc3ccc(O)cc3)C(=O)NCC(N)=O)cc12 [S-CM-Tyr-GlyNH2] | two-phase process | – | 20 nM | 400 nM | –
CCCN(CCC)C1CCc2cccc(O)c2C1 (stereo not shown) [[^3 H]8-OH-DPAT, 8-hydroxy-2-[di-N-propylamino]tetralin] | – | – | – | – | labelling of the substantia nigra [4]: not the substantia nigra; labelling of the hippocampus ([5]; 1 nM [3H]8-OH-DPAT): intense labelling; also recorded: showing the 5-HT1A sites exclusively located in the hippocampus
[^3 H]5-HT [reference compound] | – | – | – | – | labelling of the substantia nigra ([6]; 2 nM [3H]5-HT): substantial labelling; also recorded: showing the total 5-HT1 sites in the hippocampus (H) and the substantia nigra (SN); labelling of the substantia nigra ([6]; 2 nM [3H]5-HT in the presence of 100 nM 8-OH-DPAT and 100 nM mesulergin): strong reaction with the substantia nigra; also recorded: showing the 5-HT1B sites virtually exclusively located in "the substantia nigra; labelling of the hippocampus ([5]; 2 nM [3H]5-HT): substantial labelling; also recorded: showing the total 5-HT1 sites in the hippocampus (H)

Source: patent US5298491A, “Derivatives of endogenous mediators, their salts, method of preparation, applications and compositions in which they are present” (priority 1990, dated 1994)
